# Assay results taken from US10010400B2, “Devices and methods for local delivery of drug to upper urinary tract” (TARIS Biomedical LLC, priority 2015, dated 2018).
# Test: in vitro osmotic pumping of methylene blue up a capillary tube from a closed drug reservoir
# Format: physicochemical
# Details: reservoir with urea and lactose tablets in 125 mL degassed, deionized water; 36 cm capillary tube extended vertically
# From the text: Another experimental system was designed to simulate a ureteral drug delivery device having a flexible elongate body with a bladder end portion and a kidney end portion, a drug reservoir located at the bladder end portion which contains a drug and has a semi-permeable wall, and a drug lumen (capillary tube) having a first opening into the drug reservoir and a second end opening at the kidney end portion of the flexible elongate body. The ureteral drug delivery device used in the experiments was configured to permit water to enter the drug reservoir through the semi-permeable wall to create an osmotic pressure to pump the drug from the drug reservoir through the capillary tube and out of the device through the second end opening.
# In this experiment, a drug reservoir similar to that illustrated in FIG. 11A was prepared. In particular, a spacer end piece was adhered using silicone adhesive within a tubular silicone housing. 10.5 cm of urea tablets, 4 cm of lactose tablets, and one tablet containing methylene blue were loaded into the tubular housing. A capillary tube (36 cm) having two spacers disposed in a spaced relationship at one end was slid into the tubular housing of the drug reservoir, adjacent the methylene blue tablet. […]
smiles,measurement,value
CN(C)c1ccc2nc3ccc(=[N+](C)C)cc-3sc2c1 [methylene blue],movement of the dye up the capillary tube,observed
